For seven molecules, ΔTm results are on record in ChEMBL document CHEMBL1145498, “A systematic interaction map of validated kinase inhibitors with Ser/Thr kinases” (Proc Natl Acad Sci U S A, 2007).

Test [1] has as its target Calcium/calmodulin-dependent protein kinase type 1D (Homo sapiens) (UniProt Q8IU85).
Test [2] has as its target Cyclin-dependent kinase 6 (Homo sapiens) (UniProt Q00534).
The target in test [3] is Cyclin-dependent kinase-like 1 (Homo sapiens) (UniProt Q00532).
Test [4] addresses T1, Dual specificity mitogen-activated protein kinase kinase 6 (Homo sapiens) (UniProt P52564).
T1 sequence (whole entry): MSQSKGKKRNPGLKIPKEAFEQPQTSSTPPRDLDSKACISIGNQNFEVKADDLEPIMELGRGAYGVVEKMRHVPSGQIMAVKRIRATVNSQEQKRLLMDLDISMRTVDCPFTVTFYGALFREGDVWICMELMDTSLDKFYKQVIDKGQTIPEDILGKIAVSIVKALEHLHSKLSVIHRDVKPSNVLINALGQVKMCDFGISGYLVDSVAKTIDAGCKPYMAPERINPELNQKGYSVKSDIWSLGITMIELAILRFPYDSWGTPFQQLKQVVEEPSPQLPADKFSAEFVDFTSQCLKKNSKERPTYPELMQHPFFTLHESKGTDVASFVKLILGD

The target of test [5] is Mitogen-activated protein kinase 11 (Homo sapiens, UniProt Q15759).
In test [6] the target is Mitogen-activated protein kinase 3 (Homo sapiens, UniProt P27361).
Test [7] deals with Serine/threonine-protein kinase 26 (Homo sapiens) (UniProt Q9P289).
The target of test [8] is T2, Serine/threonine-protein kinase Nek2 (Homo sapiens) (UniProt P51955).
T2 sequence (whole entry): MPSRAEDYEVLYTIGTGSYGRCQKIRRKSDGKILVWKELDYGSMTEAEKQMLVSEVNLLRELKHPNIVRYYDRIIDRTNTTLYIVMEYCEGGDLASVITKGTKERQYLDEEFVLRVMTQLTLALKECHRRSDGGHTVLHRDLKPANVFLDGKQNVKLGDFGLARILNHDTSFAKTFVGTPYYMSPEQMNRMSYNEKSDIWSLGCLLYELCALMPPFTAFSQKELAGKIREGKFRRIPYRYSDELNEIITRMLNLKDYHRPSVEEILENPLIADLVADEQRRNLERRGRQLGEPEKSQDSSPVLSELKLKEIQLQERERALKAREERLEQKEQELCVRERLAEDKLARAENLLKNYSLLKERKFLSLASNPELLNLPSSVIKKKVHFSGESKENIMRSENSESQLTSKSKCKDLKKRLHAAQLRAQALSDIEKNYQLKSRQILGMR

Test [9] concerns the target Serine/threonine-protein kinase PAK 4 (Homo sapiens) (UniProt O96013).
Test [10] has as its target Serine/threonine-protein kinase PAK 5 (Homo sapiens) (UniProt Q9P286).
Test [11] has as its target Cyclin-dependent kinase 16 (Homo sapiens) (UniProt Q00536).
For test [12], the target named is Serine/threonine-protein kinase pim-3 (Homo sapiens) (UniProt Q86V86).
The target in test [13] is Ribosomal protein S6 kinase alpha-3 (Homo sapiens) (UniProt P51812).
Test [14] addresses Serine/threonine-protein kinase 16 (Homo sapiens) (UniProt O75716).
The target of test [15] is T3, Serine/threonine-protein kinase 17A (Homo sapiens) (UniProt Q9UEE5).
T3 sequence (whole entry): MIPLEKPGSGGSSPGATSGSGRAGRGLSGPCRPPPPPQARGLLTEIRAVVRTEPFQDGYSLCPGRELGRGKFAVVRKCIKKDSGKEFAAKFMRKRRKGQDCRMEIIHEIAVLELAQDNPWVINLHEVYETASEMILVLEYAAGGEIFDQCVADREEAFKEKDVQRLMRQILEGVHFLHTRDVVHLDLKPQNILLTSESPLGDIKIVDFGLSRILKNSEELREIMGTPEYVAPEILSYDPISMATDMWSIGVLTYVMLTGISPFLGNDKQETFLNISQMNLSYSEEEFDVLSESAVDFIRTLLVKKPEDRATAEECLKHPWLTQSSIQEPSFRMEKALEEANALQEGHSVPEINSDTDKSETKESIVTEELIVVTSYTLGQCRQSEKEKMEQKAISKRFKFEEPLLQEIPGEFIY

Test [16] deals with Serine/threonine-protein kinase 38 (Homo sapiens) (UniProt Q15208).
Test [17] deals with T4, Serine/threonine-protein kinase 4 (Homo sapiens) (UniProt Q13043).
T4 sequence (whole entry): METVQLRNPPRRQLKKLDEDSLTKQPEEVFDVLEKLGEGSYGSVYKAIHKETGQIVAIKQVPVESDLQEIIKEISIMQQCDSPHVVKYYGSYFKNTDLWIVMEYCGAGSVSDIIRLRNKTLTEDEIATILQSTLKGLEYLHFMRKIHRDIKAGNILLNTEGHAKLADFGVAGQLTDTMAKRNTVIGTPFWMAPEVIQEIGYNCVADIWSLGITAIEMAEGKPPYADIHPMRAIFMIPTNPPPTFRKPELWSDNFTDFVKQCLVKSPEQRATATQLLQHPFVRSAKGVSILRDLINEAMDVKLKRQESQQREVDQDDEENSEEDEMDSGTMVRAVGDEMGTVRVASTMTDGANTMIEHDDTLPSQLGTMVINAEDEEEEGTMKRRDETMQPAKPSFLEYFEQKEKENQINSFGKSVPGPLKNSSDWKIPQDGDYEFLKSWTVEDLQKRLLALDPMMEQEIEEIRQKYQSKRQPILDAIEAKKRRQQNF

For test [18], the target named is T5, Lymphokine-activated killer T-cell-originated protein kinase (Homo sapiens) (UniProt Q96KB5).
T5 sequence (whole entry): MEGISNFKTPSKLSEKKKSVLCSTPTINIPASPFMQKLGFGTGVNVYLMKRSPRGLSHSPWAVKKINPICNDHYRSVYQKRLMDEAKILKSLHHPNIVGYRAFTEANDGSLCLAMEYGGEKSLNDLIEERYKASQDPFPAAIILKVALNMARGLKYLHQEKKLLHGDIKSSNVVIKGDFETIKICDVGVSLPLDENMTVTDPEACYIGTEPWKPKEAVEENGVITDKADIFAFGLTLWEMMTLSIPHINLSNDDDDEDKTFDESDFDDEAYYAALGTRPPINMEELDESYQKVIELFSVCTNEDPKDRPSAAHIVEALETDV

As a reminder, the ΔTm is the change in melting temperature against a reference sample.

Serine/threonine-protein kinase 26 (Homo sapiens), sequence (Q9P289 2-416 limits assumed): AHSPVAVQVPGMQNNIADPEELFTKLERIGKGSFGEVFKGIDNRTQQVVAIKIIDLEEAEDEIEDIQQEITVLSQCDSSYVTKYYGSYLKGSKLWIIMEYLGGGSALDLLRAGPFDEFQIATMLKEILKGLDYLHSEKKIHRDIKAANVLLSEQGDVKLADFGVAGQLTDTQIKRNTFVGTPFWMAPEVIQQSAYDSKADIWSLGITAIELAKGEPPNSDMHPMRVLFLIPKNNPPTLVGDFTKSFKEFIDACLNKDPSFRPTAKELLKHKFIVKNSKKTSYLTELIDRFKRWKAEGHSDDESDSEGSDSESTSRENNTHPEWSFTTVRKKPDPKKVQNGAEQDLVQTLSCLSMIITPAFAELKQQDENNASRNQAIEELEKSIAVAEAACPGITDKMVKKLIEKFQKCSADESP
Ribosomal protein S6 kinase alpha-3 (Homo sapiens), sequence (P51812 whole entry): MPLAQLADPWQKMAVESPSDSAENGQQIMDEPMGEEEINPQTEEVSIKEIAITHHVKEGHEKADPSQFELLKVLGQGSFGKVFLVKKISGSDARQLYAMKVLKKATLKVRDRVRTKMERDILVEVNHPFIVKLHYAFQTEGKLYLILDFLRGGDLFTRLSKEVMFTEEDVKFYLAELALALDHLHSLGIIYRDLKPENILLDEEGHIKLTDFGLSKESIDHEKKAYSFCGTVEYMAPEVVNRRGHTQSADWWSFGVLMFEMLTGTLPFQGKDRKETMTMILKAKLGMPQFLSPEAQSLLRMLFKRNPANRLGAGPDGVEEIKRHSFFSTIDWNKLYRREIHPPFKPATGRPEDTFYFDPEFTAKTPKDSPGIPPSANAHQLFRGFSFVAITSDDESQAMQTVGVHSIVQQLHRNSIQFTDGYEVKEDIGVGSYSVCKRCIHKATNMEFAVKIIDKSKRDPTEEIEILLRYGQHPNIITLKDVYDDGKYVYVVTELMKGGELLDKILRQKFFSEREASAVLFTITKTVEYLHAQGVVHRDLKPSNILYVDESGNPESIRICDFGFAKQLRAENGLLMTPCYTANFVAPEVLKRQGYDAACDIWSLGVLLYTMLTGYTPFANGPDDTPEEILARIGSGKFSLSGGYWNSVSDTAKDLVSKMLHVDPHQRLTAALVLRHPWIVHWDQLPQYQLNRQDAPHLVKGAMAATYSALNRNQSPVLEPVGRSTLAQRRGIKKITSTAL
Cyclin-dependent kinase-like 1 (Homo sapiens), sequence (Q00532 whole entry): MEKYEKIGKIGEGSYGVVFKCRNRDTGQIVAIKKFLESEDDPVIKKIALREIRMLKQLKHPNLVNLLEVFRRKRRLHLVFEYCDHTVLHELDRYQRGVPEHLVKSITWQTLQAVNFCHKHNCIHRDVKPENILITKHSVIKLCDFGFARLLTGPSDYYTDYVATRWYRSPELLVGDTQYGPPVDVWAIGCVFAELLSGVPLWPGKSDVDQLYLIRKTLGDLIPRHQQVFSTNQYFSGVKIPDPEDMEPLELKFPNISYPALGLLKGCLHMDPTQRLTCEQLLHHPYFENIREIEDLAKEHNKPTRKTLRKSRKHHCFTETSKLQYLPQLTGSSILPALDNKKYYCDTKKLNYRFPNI
Serine/threonine-protein kinase 38 (Homo sapiens), sequence (Q15208 2-465 limits assumed): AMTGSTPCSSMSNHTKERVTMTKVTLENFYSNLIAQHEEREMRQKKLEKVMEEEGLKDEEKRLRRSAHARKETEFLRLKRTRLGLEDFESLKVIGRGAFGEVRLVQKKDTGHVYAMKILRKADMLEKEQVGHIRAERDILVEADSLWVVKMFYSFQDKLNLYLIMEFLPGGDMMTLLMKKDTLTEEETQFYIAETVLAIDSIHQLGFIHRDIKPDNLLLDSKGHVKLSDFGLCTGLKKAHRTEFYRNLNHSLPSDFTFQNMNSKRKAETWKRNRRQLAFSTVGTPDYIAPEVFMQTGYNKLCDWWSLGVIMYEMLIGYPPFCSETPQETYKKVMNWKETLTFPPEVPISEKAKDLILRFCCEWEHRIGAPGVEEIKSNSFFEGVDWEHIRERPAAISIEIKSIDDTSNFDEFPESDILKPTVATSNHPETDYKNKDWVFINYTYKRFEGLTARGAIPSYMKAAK
Serine/threonine-protein kinase PAK 4 (Homo sapiens), sequence (O96013 whole entry, looked up): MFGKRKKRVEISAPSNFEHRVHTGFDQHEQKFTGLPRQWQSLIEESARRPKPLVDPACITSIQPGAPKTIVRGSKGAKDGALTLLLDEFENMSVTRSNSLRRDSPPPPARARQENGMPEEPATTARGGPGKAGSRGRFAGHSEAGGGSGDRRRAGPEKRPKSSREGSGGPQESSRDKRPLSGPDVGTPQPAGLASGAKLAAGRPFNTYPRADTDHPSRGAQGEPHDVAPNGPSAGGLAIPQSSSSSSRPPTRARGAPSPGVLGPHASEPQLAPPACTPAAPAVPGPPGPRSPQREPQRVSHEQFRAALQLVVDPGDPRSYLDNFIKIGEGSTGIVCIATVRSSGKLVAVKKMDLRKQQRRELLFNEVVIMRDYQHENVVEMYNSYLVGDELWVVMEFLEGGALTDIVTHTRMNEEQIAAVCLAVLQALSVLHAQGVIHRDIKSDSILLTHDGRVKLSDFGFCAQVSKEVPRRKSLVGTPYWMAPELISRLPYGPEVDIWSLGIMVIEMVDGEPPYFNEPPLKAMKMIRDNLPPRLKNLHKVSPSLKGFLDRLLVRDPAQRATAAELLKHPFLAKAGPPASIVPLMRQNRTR
Mitogen-activated protein kinase 3, sequence (P27361 whole entry): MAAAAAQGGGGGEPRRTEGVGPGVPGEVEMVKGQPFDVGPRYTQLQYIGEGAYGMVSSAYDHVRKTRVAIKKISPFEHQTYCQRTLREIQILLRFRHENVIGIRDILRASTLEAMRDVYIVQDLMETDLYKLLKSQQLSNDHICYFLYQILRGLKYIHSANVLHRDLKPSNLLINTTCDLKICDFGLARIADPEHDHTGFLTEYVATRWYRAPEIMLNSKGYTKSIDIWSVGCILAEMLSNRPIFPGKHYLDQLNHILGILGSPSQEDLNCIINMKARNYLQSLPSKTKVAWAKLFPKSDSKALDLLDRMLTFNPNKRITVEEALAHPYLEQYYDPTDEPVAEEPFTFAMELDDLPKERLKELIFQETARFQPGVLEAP
Calcium/calmodulin-dependent protein kinase type 1D (Homo sapiens), sequence (Q8IU85 whole entry, looked up): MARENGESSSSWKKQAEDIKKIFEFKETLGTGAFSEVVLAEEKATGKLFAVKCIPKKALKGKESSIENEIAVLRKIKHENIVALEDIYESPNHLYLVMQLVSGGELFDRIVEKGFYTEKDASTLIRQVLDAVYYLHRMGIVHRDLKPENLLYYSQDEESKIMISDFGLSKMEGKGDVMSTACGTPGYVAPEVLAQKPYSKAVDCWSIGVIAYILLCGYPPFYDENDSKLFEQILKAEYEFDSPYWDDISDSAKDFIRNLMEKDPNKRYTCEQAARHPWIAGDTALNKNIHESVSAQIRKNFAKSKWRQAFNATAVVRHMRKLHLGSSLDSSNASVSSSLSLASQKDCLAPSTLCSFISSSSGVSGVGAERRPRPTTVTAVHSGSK
Cyclin-dependent kinase 6 (Homo sapiens), sequence (Q00534 whole entry): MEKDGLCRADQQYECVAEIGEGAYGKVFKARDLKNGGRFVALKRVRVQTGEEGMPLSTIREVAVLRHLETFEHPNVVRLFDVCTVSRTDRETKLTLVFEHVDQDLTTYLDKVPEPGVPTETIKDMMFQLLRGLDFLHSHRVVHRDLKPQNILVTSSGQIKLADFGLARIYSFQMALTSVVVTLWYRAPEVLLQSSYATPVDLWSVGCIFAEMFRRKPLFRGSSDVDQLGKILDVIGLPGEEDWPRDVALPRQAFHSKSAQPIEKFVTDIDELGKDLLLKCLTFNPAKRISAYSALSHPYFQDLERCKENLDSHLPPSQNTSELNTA
Serine/threonine-protein kinase PAK 5 (Homo sapiens), sequence (Q9P286 whole entry, looked up): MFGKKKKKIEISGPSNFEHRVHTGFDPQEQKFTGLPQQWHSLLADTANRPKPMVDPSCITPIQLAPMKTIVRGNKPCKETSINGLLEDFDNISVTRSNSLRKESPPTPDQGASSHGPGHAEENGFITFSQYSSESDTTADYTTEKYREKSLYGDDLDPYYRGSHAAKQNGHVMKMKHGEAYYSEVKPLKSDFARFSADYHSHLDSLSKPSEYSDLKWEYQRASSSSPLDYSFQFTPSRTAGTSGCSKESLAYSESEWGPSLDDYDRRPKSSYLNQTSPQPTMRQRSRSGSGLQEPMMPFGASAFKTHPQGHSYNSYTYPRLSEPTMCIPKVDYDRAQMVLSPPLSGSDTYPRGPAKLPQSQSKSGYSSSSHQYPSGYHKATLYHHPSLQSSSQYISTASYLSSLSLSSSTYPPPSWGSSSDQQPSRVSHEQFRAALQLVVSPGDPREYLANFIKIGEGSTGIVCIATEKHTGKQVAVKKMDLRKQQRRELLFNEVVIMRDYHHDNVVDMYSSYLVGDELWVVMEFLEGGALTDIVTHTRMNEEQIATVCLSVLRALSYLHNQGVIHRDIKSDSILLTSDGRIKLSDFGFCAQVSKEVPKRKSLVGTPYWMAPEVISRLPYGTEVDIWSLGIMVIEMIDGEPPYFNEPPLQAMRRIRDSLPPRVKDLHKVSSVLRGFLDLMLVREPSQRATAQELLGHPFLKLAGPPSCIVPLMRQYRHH

On to `NC(=O)c1ccc(-c2nc(-c3ccc4c(c3)OCCO4)c(-c3ccccn3)[nH]2)cc1`, for which the shift in melting temperature (ΔTm) in [1] was 0 °C; in [2] it was 0.4 °C; in test [3] it was -0.3 °C; in test [4], 0.3 °C; in test [5] it was -0.1 °C; in test [6], -0.1 °C. The ΔTm was -1.1 °C in [7]; 1.1 °C in test [8]; 0.9 °C in test [9]; 0.4 °C in test [10]; -0.4 °C in [11]; 0.4 °C in test [12]. For the same molecule, the ΔTm in [13] is 0 °C; in test [14] it was 0.1 °C; in test [15], -0.3 °C; in [16], 0.5 °C; in test [17], 1.1 °C; in test [18], -1.4 °C.

Consider `O=C1Nc2ccccc2/C1=C1/Nc2ccccc2/C1=N\O`, for which the ΔTm came to 2.2 °C in test [1]; 5.9 °C in [2]; 6.1 °C in [3]; 6.4 °C in [4]; 2.4 °C in test [5]; 0.8 °C in test [6]. The ΔTm was 4.4 °C in test [7]; 2.8 °C in [8]; 3.4 °C in test [9]; 3.3 °C in [10]; 8.9 °C in [11]; 5.2 °C in test [12]. Also, the ΔTm in test [13] was found to be 4.1 °C; in [14] it was 11.7 °C; in [15], 9.9 °C; in test [16], 3.8 °C; in test [17], 8.4 °C; in test [18] it was 0 °C.

`O=c1cc(-c2ccc(O)cc2)oc2cc(O)cc(O)c12`: the ΔTm was determined as 1 °C in [1]; 0.4 °C in test [2]; 1.4 °C in test [3]; 2.2 °C in test [4]; 1.7 °C in test [5]; 0.5 °C in test [6]. Besides, the shift in melting temperature (ΔTm) in test [7] is 3.1 °C; in test [8], 1.4 °C; in test [9], 0.3 °C; in [10], 0.4 °C; in [11] it was 1.2 °C; in test [12], 4.6 °C. Moreover, the ΔTm in test [13] is 2.4 °C; in test [14] it was 4.8 °C; in test [15] it was 7.3 °C; in [16], 1.1 °C; in test [17], 2.8 °C; in test [18], 0.5 °C.

As for `O=c1cc(N2CCOCC2)oc2c(-c3ccccc3)cccc12`, the ΔTm is 0.3 °C in [1]; 0.5 °C in test [2]; -0.5 °C in test [3]; 0.4 °C in test [4]; -0.3 °C in test [5]; -0.6 °C in test [6]. The ΔTm in [7] is -0.3 °C; in test [8] it was 1.3 °C; in test [9], 0.9 °C; in test [10], 0.5 °C; in test [11] it was 0 °C; in test [12] it was 2.8 °C. Moreover, the ΔTm in test [13] is 0.2 °C; in [14], 0.4 °C; in [15], 1 °C; in test [16] it was 0.6 °C; in test [17] it was 0.6 °C; in test [18], -0.5 °C.

In the case of `CN(C)c1ccc(CC2C(=O)Nc3ccccc32)cc1` (stereo unspecified), the ΔTm is 0 °C in test [1]; 0.8 °C in [2]; -0.3 °C in [3]; 0.5 °C in test [4]; 0.3 °C in test [5]; 0.4 °C in test [6]. Besides, the ΔTm is 0.7 °C in test [7]; -0.5 °C in [8]; 0.9 °C in test [9]; 0.3 °C in [10]; -0.5 °C in [11]; 1.2 °C in [12]. The ΔTm in [13] was determined as 0.9 °C; in [14] it was 1.9 °C; in test [15], 6.2 °C; in [16], 1.5 °C; in test [17], 4.4 °C; in test [18], 0.1 °C.

On to `Nc1nc(Nc2ccc(S(N)(=O)=O)cc2)nn1C(=S)Nc1c(F)cccc1F`, for which the ΔTm in test [1] came out at 3.1 °C; in test [2], 4.6 °C; in [3], 4.3 °C; in [4], 7.6 °C; in [5], 1.9 °C; in [6], 3.6 °C. In addition, the shift in melting temperature (ΔTm) in [7] worked out at 11.1 °C; in test [8], 2.5 °C; in [9], 6.3 °C; in test [10], 5.5 °C; in test [11] it was 10 °C; in test [12], 1.9 °C. Moreover, the ΔTm in test [13] is 9.6 °C; in [14], 7.8 °C; in test [15], 12.6 °C; in test [16], 6.4 °C; in [17], 12.9 °C; in test [18], -0.2 °C.

For the molecule `Cc1cncc2cccc(S(=O)(=O)N3CCCNC[C@@H]3C)c12`, the shift in melting temperature (ΔTm) was 0.9 °C in test [1]; -0.1 °C in [2]; 0.1 °C in test [3]; 0.4 °C in [4]; -0.1 °C in [5]; 0.2 °C in [6]. The ΔTm in test [7] is 1.5 °C; in [8], -0.2 °C; in test [9] it was 0.7 °C; in test [10] it was 0.5 °C; in test [11], -0.6 °C; in test [12] it was 0.8 °C. Also, the ΔTm in test [13] is 5.5 °C; in [14], 1.1 °C; in test [15], 2 °C; in test [16] it was 0.6 °C; in [17], 3.3 °C; in test [18] it was 1 °C.
